Experimental data: ChEMBL document CHEMBL5726109, “Histone deacetylase inhibitors and compositions and methods of use thereof” (2017)

Target: Histone deacetylase 4 (Homo sapiens, UniProt P56524)
Assay: Inhibition Assay: 2 μl (200×) of each diluted solution and each control (full activity: 100% DMSO alone or full inhibition 1 mM) is stamped into V-bottomed polypropylene 384-well compound plates using either the Bravo (384-well head from Agilent) or 12.5 μl 16-channel Matrix multi-channel pipette (Matrix Technologies Ltd).

Sequence of Histone deacetylase 4 (P56524 whole entry): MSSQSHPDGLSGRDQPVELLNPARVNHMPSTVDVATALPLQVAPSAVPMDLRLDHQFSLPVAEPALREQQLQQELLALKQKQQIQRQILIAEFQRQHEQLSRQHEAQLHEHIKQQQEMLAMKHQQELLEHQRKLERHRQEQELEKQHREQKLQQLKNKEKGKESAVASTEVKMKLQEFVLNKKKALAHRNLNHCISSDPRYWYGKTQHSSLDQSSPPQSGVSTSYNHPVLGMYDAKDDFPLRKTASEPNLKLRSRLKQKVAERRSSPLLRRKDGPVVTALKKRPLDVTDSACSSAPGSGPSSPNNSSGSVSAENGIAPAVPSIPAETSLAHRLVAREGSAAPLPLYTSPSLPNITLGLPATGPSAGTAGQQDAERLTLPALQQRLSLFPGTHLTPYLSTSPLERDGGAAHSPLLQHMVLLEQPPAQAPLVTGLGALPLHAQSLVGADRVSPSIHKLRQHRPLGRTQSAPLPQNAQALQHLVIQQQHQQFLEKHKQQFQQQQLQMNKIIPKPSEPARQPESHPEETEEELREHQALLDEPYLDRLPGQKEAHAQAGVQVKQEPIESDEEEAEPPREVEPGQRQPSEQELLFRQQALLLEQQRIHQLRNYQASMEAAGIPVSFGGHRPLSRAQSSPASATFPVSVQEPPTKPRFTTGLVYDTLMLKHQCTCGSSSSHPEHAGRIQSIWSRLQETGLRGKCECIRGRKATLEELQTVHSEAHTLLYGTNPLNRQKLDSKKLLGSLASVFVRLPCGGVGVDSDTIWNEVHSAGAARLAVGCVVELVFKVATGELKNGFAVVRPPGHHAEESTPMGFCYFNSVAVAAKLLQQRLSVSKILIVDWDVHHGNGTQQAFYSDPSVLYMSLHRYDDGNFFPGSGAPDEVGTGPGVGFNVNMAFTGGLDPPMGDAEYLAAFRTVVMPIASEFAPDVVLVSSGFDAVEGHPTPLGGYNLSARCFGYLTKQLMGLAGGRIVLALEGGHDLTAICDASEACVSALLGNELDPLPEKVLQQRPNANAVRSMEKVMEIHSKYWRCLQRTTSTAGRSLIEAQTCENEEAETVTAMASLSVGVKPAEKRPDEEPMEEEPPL

With `Cc1c(F)cccc1[C@@]1(C(=O)NO)C=C(c2cnccn2)CC1` the IC50 was 2.4 µM.
